Measured values from patent US12122821B2, “Regulation of glucose metabolism using anti-CGRP antibodies” (H. LUNDBECK A/S, priority 2013, dated 2024).

Columns and labels:
Format in all cases: in vivo
[1] = system: Zucker diabetic fatty (ZDF) rat; assay: Body weight and food intake in ZDF rats (Example 3); settings: pioglitazone 10 mg/kg/day, vs vehicle ZDF
Experimental: For the groups treated with AB14, the antibody was administered once weekly via the caudal vein (i.v., 5 mL/kg) on days 1, 8, 15, and 22 at two different doses 20 mg/kg/week (groups 3 and 7) or 60 mg/kg/week (groups 4 and 8). All other groups were treated once weekly with vehicle 1 (i.v., 5 mL/kg). The intravenous treatments were performed in the morning on day 1, 8, 15, and 22 while under isoflurane anaesthesia. The volume of administration was individually adapted according to the most recent body weight. […] All other groups were treated daily with vehicle 2 (p.o., 5 mL/kg) for 28 days. The most recent body weight was used to calculate the average volume of administration in each group. Body weight was measured twice a week during the 4 weeks of treatment. Food consumption was measured just before the screening procedure and then twice weekly over 24 h during the first three weeks of treatment. Food consumption was measured once weekly during the week of OGTT (week 4).

[2] = system: Zucker diabetic fatty (ZDF) rat; assay: Fasting blood glucose, plasma insulin, C-peptide and HOMA-IR in ZDF rats (Example 3); settings: vs vehicle ZDF
Experimental: (§1) For the groups treated with AB14, the antibody was administered once weekly via the caudal vein (i.v., 5 mL/kg) on days 1, 8, 15, and 22 at two different doses 20 mg/kg/week (groups 3 and 7) or 60 mg/kg/week (groups 4 and 8). All other groups were treated once weekly with vehicle 1 (i.v., 5 mL/kg). The intravenous treatments were performed in the morning on day 1, 8, 15, and 22 while under isoflurane anaesthesia. The volume of administration was individually adapted according to the most recent body weight.
(§2) All other groups were treated daily with vehicle 2 (p.o., 5 mL/kg) for 28 days. The most recent body weight was used to calculate the average volume of administration in each group.
(§3) A fasting (6 hours on day 0 from 8:00 am to 02:00 pm, and overnight on day 12, 19 and 26 from ˜6:00 pm to ˜8:00 am) was performed before each blood collection. Blood was collected at ˜2:00 pm, from the tip of the tail, on day 0 (before screening, 150 μL, potassium EDTA), and at ˜8:00 am prior to dosing on days 12 (110 μL, potassium EDTA), 19 (150 μL, potassium EDTA) and 26, (110 μL, potassium EDTA).
(§4) Fasting blood glucose (glucometers) was measured on days 0, 12, 19, and 26. Fasting plasma insulin, peptide-C (ELISA method), free fatty acids, triglycerides, total cholesterol (colorimetric method), and HDL-cholesterol (phosphotungstate precipitation, colorimetric method) were measured on day 0, and prior to dosing on days 12, 19, and day 26. Non HDL-cholesterol was calculated as total cholesterol—HDL-cholesterol. Fructosamine was measured on days 0, 19 and 28. HbA1c (DCA 2000) was measured on days 0 and 28.

[3] = system: Zucker diabetic fatty (ZDF) rat; assay: Fructosamine and HbA1c in ZDF rats (Example 3); settings: vs vehicle ZDF
Experimental: as §1, §2, §4

[4] = system: Zucker diabetic fatty (ZDF) rat; assay: Plasma triglycerides, free fatty acids and cholesterol in ZDF rats (Example 3); settings: for increase of plasma HDL-cholesterol / decrease of plasma non HDL-cholesterol levels: vs vehicle; for lowering of plasma free fatty acids levels: vs vehicle ZDF
Experimental: as §1, §2, §3, §4

[5] = system: Zucker diabetic fatty (ZDF) rat; assay: Oral glucose tolerance test on day 26 in ZDF rats (Example 3)
Experimental: The oral glucose tolerance test (OGTT) was performed as follows. On day 25, rats were fasted at ˜6:00 pm and an oral glucose tolerance test was performed the day after (on day 26). At ˜8:00 am (T-60) a blood collection (110 μL, EDTA) was performed for biochemical parameters measurements. One hour after (˜09:00 am), an oral glucose bolus (1.5 g/kg) was administered (T0). Blood glucose was measured (glucometer or colorimetric method in case of high glycaemia) on T-60, T0, T15, T30, T60, T90, T120, and T180 minutes. Area under the curve (AUC) was calculated based on the blood glucose values measured at T0. Plasma insulin and C-peptide were measured (ELISA method) on T-60, T15 (·40 μL of blood, EDTA), and T30 minutes (·40 μL of blood, EDTA).

[6] = day 12, pioglitazone 10 mg/kg/day
[7] = day 19, pioglitazone 10 mg/kg/day
[8] = day 26, pioglitazone 10 mg/kg/day
[9] = days 12, 19 and 26, pioglitazone 10 mg/kg/day
[10] = OGTT day 26, pioglitazone 10 mg/kg/day, vs vehicle ZDF

CCc1ccc(CCOc2ccc(CC3SC(=O)NC3=O)cc2)nc1 (centres unmarked) [pioglitazone]
body weight gain at the end of the treatment [1]: 3 fold
increase of cumulative food intake ([1]; NS): 14%
reduction of HOMA-IR [2, 6]: 67%
reduction of HOMA-IR [2, 7]: 62%
reduction of HOMA-IR [2, 8]: 54%
plasma C-peptide levels [2, 9]: no effect
plasma insulin levels [2, 9]: no effect
decrease of HbA1c ([3]; 28 days, pioglitazone 10 mg/kg/day, metformin 200 mg/kg/day): 44%
reduction of fructosamine levels ([3]; day 19, pioglitazone 10 mg/kg/day, metformin 200 mg/kg/day): 30%
reduction of fructosamine levels ([3]; day 28, pioglitazone 10 mg/kg/day): 25%
increase of plasma HDL-cholesterol [4, 6]: 38%
lowering of plasma free fatty acids levels [4, 6]: 35%
decrease of plasma non HDL-cholesterol levels [4, 7]: 49%
increase of plasma HDL-cholesterol [4, 7]: 17%
lowering of plasma free fatty acids levels [4, 7]: 17%
decrease of plasma non HDL-cholesterol levels [4, 8]: 47%
increase of plasma HDL-cholesterol [4, 8]: 19%
lowering of plasma free fatty acids levels [4, 8]: 30%
increase of C-peptide secretion (relative to T-60) at T15 [5, 10]: 21%
increase of C-peptide secretion (relative to T-60) at T30 [5, 10]: 22%
increase of insulin secretion (relative to T-60) at T30 [5, 10]: 5%
increase of insulin secretion (relative to T-60) at T15 ([5]; OGTT day 26, vs vehicle ZDF (pioglitazone 10 mg/kg/day)): 20%
reduction in blood glucose AUC (OGTT) ([5]; day 26, pioglitazone 10 mg/kg/day, metformin 200 mg/kg/day, vs vehicle ZDF): 54%
